Source: patent US8008525B2, “Receptor function regulating agent” (Takeda Pharmaceutical Company Limited, priority 2003, dated 2011)

Each compound was assayed against T1, human 14273 receptor (Homo sapiens, UniProt Q5NUL3) (assay: Test Example 1: regulating effect for 14273 receptor function (agonist effect), change in intracellular calcium level by FLIPR). Details: CHO cell line (No. 104) expressing human 14273 receptor, change of fluorescent intensity after 35 seconds.
T1 construct: expressed in transfected cells
T1 sequence (Q5NUL3 1-361): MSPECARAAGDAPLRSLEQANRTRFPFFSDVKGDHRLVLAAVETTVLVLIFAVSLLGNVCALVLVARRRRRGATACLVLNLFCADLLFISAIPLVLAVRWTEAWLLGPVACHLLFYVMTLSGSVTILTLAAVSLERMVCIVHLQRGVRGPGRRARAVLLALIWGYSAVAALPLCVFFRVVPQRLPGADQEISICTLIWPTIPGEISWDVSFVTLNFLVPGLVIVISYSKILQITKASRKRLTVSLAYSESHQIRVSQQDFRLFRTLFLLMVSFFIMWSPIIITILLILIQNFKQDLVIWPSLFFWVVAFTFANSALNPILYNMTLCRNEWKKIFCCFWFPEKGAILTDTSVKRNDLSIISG
Type: cell-based
Procedure: CHO cell lines (No. 104) in which a human 14273 receptor has expressed was diluted to contain 3×10^4/100 μl cells, and dispensed in Black walled 96-well plate (Costar) at a density of 100 μl/well, followed by culturing overnight in a CO2 incubator. A change in intracellular calcium level was measured using FLIPR (Molecular Device). The method is described as below. 50 μg of Fluo-3AM (DOJIN) was dissolved in 21 μl of DMSO (DOJIN) and an equal volume of 20% pluronic acid (Molecular Probes) was added thereto, followed by mixing them. The mixture was added to 10.6 ml of the assay buffer [which is prepared by adding 10 ml of a solution, which is prepared by adding 20 ml of 1 M HEPES (pH 7.4, DOJIN) to 1 L of HBSS (Invitrogen), dissolving 710 mg of probenecid (Sigma) in 5 ml of 1 N NaOH, and further adding 5 ml of the above-mentioned HBSS/HEPES solution and mixing it.] supplemented with 105 μl of fetal bovine serum to prepare a fluorescent dye solution. The medium of the cell plate was removed, the fluorescent dye solution was dispensed in 100 μl each per well. The culturing was performed in a CO2 incubator for 1 hour to incorporate the fluorescent dye into the cells. The cells after culturing were washed with the assay buffer. The compounds to be added to the cells were diluted to each concentration with a buffer solution to which CHAPS (DOJIN) was added in 0.015%, and dispensed in a plate for the test sample. Following the pretreatment above, a change in intracellular calcium level after addition of the compound was determined with FLIPR to investigate the agonist effect. An EC50 value was calculated from dose-reaction curve using the change of fluorescent intensity after 35 seconds from the reaction initiation.

EC50, ≤ 10 µM:
O=C(O)CCc1ccc(OC2CCCc3ccccc32)cc1 (centres unmarked) [Reference Example 20, 4-[(1,2,3,4-Tetrahydronaphthalen-1-yl)oxy]benzenepropanoic acid]
O=C(O)CCc1cc(F)c(OCc2ccccc2-c2ccccc2)c(F)c1 [Example 20, 4-([1,1′-Biphenyl]-2-ylmethoxy)-3,5-difluorobenzenepropanoic acid]
O=C(O)CCc1cc(F)c(OC2CCc3ccccc32)c(F)c1 (centres unmarked) [Reference Example 14, 3,5-Difluoro-4-[(2,3-dihydro-1H-inden-1-yl)oxy]benzenepropanoic acid]
Cc1ccc(Oc2cccc(COc3ccc(CCC(=O)O)cc3F)c2)cc1 [Example 171, 3-(3-fluoro-4-{[3-(4-methylphenoxy)benzyl]oxy}phenyl)propanoic acid]
O=C(O)CCc1ccc(OCc2ccccc2-c2ccccc2)c(Cl)c1 [Example 24, 4-([1,1′-Biphenyl]-2-ylmethoxy)-3-chlorobenzenepropanoic acid]
CCOc1cccc(COc2ccc(CCC(=O)O)cc2F)c1C [Example 208, 3-{4-[(3-ethoxy-2-methylbenzyl)oxy]-3-fluorophenyl}propanoic acid]
O=C(O)CCc1cc(F)c(OCc2cccc(Oc3ccc(F)cc3)c2)c(F)c1 [Example 54, 3-(3,5-difluoro-4-{[3-(4-fluorophenoxy)benzyl]oxy}phenyl)propanoic acid]
COc1cccc(COc2c(F)cc(CCC(=O)O)cc2F)c1 [Example 6, 3,5-Difluoro-4-[(3-methoxyphenyl)methoxy]benzenepropanoic acid]
CC(C)Oc1ccccc1COc1c(F)cc(CCC(=O)O)cc1F [Example 34, 3-{3,5-difluoro-4-[(2-isopropoxybenzyl)oxy]phenyl}propanoic acid]
O=C(O)CCc1ccc(OCc2cccc3c2OCO3)c(F)c1 [Example 102, 3-[4-(1,3-benzodioxol-4-ylmethoxy)-3-fluorophenyl]propanoic acid]
O=C(O)CCc1cc(F)c(OCc2cccc(Oc3ccsc3)c2)c(F)c1 [Example 62, 3-(3,5-difluoro-4-{[3-(3-thienyloxy)benzyl]oxy}phenyl)propanoic acid]
CCOc1cccc(COc2ccc(CCC(=O)O)cc2C)c1 [Example 180, 3-{4-[(3-ethoxybenzyl)oxy]-3-methylphenyl}propanoic acid]
O=C(O)CCc1ccc(OCc2ccccc2-c2ccccc2)c(F)c1 [Example 22, 4-([1,1′-Biphenyl]-2-ylmethoxy)-3-fluorobenzenepropanoic acid]
O=C(O)CCc1cc(F)c(OCc2cccc(Oc3ccccc3)c2)c(F)c1 [Example 2, 3,5-Difluoro-4-[(3-phenoxyphenyl)methoxy]benzenepropanoic acid]
O=C(O)CCc1ccc(OCc2cccc(-c3ccccc3)c2)c(Cl)c1 [Reference Example 18, 4-([1,1′-Biphenyl]-3-ylmethoxy)-3-chlorobenzenepropanoic acid]
CCOc1cccc(COc2ccc(CCC(=O)O)cc2F)c1 [Example 188, 3-{4-[(3-ethoxybenzyl)oxy]-3-fluorophenyl}propanoic acid]
O=C(O)CCc1ccc(OCc2cccc(Oc3ccc(Cl)cc3)c2)c(F)c1 [Example 163, 3-(3-fluoro-4-{[3-(4-chlorophenoxy)benzyl]oxy}phenyl)propanoic acid]
Cc1ccc2c(c1)C(Oc1ccc(CCC(=O)O)cc1)C(C)(C)C2 (centres unmarked) [Reference Example 50, 4-[(2,3-Dihydro-2,2,6-trimethyl-1H-inden-1-yl)oxy]benzenepropanoic acid]
COc1cc(COc2ccc(CCC(=O)O)cc2F)cc(OC)c1 [Example 94, 3-{4-[(3,5-dimethoxybenzyl)oxy]-3-fluorophenyl}propanoic acid]
O=C(O)CCc1ccc(OCc2ccccc2Oc2ccccc2)cc1 [Reference Example 30, 4-[(2-Phenoxyphenyl)methoxy]benzenepropanoic acid]
CC(C)Oc1cc(COc2ccc(CCC(=O)O)cc2F)cc(Oc2ccccc2)c1 [Example 124, 3-{3-fluoro-4-[(3-isopropoxy-5-phenoxybenzyl)oxy]phenyl}propanoic acid]
CC(C)Oc1cccc(COc2c(F)cc(CCC(=O)O)cc2F)c1 [Example 10]
O=C(O)CCc1ccc(OCc2ccccc2Oc2ccccc2)c(F)c1 [Example 18, 3-Fluoro-4-[(2-phenoxyphenyl)methoxy]benzenepropanoic acid]
Cc1ccccc1COc1c(F)cc(CCC(=O)O)cc1F [Example 42, 3-{3,5-difluoro-4-[(2-methylbenzyl)oxy]phenyl}propanoic acid]
CC1(C)Cc2ccccc2C1Oc1ccc(CCC(=O)O)cc1 (centres unmarked) [Reference Example 25, 4-[(2,3-Dihydro-2,2-dimethyl-1H-inden-1-yl)oxy]benzenepropanoic acid]
O=C(O)CCc1cc(F)c(OCc2cccc(OC3CCCCC3)c2)c(F)c1 [Example 52, 3-(4-{[3-(cyclohexyloxy)benzyl]oxy}-3,5-difluorophenyl)propanoic acid]
O=C(O)CCc1cc(F)c(OCc2ccccc2OC2CCCCC2)c(F)c1 [Example 36, 3-(4-{[2-(cyclohexyloxy)benzyl]oxy}-3,5-difluorophenyl)propanoic acid]
COc1ccc2c(c1)C(Oc1ccc(CCC(=O)O)cc1)C(C)(C)C2 (centres unmarked) [Reference Example 44, 4-[(2,3-Dihydro-6-methoxy-2,2-dimethyl-1H-inden-1-yl)oxy]benzenepropanoic acid]
CC1(C)Cc2ccc(Cl)cc2C1Oc1ccc(CCC(=O)O)cc1 (centres unmarked) [Reference Example 47, 4-[(6-Chloro-2,3-dihydro-2,2-dimethyl-1H-inden-1-yl)oxy]benzenepropanoic acid]
O=C(O)CCc1cc(F)c(OCc2cccc(Oc3ccc(Cl)cc3)c2)c(F)c1 [Example 48, 3-(4-{[3-(4-chlorophenoxy)benzyl]oxy}-3,5-difluorophenyl)propanoic acid]
Cc1cccc(Oc2cccc(COc3ccc(CCC(=O)O)cc3F)c2)c1 [Example 169, 3-(3-fluoro-4-{[3-(3-methylphenoxy)benzyl]oxy}phenyl)propanoic acid]
Cc1ccc(Oc2cccc(COc3c(F)cc(CCC(=O)O)cc3F)c2)cc1 [Example 56, 3-(3,5-difluoro-4-{[3-(4-methylphenoxy)benzyl]oxy}phenyl)propanoic acid]
O=C(O)CCc1cc(F)c(OCc2ccccc2N2CCCCC2)c(F)c1 [Example 44, 3-{3,5-difluoro-4-[(2-piperidin-1-ylbenzyl)oxy]phenyl}propanoic acid]
Cc1cc(CCC(=O)O)ccc1OCc1cccc(Oc2ccccc2)c1 [Example 173, 3-(3-methyl-4-[(3-phenoxybenzyl)oxy]phenyl)propanoic acid]
O=C(O)CCc1cc(F)c(OCc2ccccc2Oc2ccccc2)c(F)c1 [Example 16, 3,5-Difluoro-4-[(2-phenoxyphenyl)methoxy]benzenepropanoic acid]
CCOc1cccc(COc2c(F)cc(CCC(=O)O)cc2F)c1 [Example 8, 4-[(3-Ethoxyphenyl)methoxy]-3,5-difluorobenzenepropanoic acid]
O=C(O)CCc1cc(F)c(OCc2cccc(OC3CCCC3)c2)c(F)c1 [Example 58, 3-(4-{[3-(cyclopentyloxy)benzyl]oxy}-3,5-difluorophenyl)propanoic acid]
O=C(O)CCc1ccc(OCc2cc(O)cc(Oc3ccccc3)c2)c(F)c1 [Example 118, 3-{3-fluoro-4-[(3-hydroxy-5-phenoxybenzyl)oxy]phenyl}propanoic acid]
